The record followed here is PubChem BioAssay AID624327 (Sanford-Burnham Center for Chemical Genomics, 2012).

The assay deals with Fatty acid synthase (Homo sapiens) (UniProt P49327). Put plainly: FAS thioesterase domain inhibitors, dose response, biochemical, endpoint fluorescence intensity, uHTS hits (AID 624327). As to conditions: recombinant FAS-TE, OMFH fluorogenic substrate.
Sequence of Fatty acid synthase (Homo sapiens) (P49327 whole entry, looked up, the tested form may be a part): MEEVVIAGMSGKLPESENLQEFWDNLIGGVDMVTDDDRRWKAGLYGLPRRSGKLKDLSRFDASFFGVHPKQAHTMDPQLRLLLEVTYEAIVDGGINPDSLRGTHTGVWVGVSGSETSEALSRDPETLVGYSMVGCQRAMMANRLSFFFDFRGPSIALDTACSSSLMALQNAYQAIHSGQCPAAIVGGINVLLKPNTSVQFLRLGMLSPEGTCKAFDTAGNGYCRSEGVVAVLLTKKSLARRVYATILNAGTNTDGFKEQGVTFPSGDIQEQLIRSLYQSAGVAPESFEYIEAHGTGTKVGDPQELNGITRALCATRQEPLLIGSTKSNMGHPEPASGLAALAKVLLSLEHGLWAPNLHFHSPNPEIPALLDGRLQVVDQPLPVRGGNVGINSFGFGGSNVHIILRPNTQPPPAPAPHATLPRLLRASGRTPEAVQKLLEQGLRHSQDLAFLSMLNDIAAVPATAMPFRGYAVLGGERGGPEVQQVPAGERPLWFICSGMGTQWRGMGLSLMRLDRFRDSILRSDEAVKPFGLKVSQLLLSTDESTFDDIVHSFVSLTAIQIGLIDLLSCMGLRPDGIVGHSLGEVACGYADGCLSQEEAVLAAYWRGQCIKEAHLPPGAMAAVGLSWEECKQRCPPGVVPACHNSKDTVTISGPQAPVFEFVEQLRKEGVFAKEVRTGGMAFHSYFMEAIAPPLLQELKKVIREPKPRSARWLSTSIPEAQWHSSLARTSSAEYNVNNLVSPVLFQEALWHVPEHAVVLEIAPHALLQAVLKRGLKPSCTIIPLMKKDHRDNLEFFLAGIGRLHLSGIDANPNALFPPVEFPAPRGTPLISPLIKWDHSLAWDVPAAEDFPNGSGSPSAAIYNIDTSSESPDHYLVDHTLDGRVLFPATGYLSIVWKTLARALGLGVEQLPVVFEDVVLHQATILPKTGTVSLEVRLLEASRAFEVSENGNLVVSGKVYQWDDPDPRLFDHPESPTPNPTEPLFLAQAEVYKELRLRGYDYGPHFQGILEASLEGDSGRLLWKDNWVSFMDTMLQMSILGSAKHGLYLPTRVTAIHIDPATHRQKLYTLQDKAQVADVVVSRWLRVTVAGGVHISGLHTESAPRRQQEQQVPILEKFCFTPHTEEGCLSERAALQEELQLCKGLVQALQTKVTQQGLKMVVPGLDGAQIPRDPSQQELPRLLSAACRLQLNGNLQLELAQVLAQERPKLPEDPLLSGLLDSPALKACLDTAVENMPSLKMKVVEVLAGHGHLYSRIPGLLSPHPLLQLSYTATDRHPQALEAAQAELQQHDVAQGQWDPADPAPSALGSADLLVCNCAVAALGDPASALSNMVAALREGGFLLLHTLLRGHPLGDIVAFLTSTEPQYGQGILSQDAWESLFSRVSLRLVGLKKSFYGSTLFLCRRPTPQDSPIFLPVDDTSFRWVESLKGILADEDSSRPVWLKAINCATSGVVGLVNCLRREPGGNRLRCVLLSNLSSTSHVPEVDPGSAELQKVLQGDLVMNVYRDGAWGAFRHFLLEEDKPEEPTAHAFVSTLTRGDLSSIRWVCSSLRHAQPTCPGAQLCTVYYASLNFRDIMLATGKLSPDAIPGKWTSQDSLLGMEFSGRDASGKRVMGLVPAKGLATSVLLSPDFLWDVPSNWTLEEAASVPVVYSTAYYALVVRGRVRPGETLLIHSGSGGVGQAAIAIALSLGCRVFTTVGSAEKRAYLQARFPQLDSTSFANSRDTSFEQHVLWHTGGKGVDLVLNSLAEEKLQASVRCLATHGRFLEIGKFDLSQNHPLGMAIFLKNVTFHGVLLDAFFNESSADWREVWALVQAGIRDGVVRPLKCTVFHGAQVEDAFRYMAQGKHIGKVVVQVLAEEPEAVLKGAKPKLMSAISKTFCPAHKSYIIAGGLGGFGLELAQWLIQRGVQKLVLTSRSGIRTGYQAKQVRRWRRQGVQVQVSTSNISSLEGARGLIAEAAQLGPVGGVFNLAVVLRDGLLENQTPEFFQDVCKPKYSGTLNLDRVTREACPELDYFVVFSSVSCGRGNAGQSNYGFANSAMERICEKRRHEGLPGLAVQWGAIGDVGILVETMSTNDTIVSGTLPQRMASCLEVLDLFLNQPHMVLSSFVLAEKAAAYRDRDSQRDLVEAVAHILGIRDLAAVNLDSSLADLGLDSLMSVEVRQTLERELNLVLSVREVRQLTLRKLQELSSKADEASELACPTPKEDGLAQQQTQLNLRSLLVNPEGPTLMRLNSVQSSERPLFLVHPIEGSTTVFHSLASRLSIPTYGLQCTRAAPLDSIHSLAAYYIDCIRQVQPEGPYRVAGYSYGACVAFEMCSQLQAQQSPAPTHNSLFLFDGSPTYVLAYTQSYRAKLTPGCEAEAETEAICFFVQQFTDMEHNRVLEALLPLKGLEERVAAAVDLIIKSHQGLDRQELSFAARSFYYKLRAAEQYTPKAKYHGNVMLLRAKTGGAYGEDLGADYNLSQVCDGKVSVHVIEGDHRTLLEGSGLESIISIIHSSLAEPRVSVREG
For the molecule `CC(C)(C)OC(=O)NCCCC[C@H](NC(=O)c1nc[nH]c1C(=O)NCC(=O)OCc1ccccc1)C(=O)OC(C)(C)C`, the IC50 is < 0.16 µM.
Take `CN(C)S(=O)(=O)c1ccc(-c2csc(-c3cccnc3)n2)cc1`: the IC50 is 5.21 µM.
On to `CC(C)(C)c1nc2scc(-c3cccs3)c2c(=O)o1`, for which the IC50 was 3.39 µM.
Consider `CCCC(C)c1nnc(NC(=O)c2cc(C(=O)OC)cc([N+](=O)[O-])c2)s1` (stereo unspecified), for which the IC50 is 7.12 µM.
For `CCn1c(=O)c([N+](=O)[O-])c(N2CCN(Cc3ccc4c(c3)OCO4)CC2)c2ccccc21`, the IC50 was 1.83 µM.
As for `O=C(CN1C(=O)c2cccc([N+](=O)[O-])c2C1=O)N1CCc2ccccc2C1`, the figure is 9.44 µM.
As for `CCOC(=O)[C@]12Cc3ccccc3[C@H]1N(C1CCCCC1)C(=O)c1cc(OC)ccc12`, the figure is 8.27 µM.
As for `CC1(C(=O)NS(=O)(=O)c2ccc(C#N)cc2)CCN1C(=O)c1ccc(C2CCCCC2)cc1` (stereo unspecified), the figure is 5.24 µM; as for `COc1ccccc1C(=O)Nc1nc(-c2ccc(S(=O)(=O)N3CCOCC3)cc2)cs1`, 11.8 µM; as for `O=S(=O)(c1ccc(-c2csc(Nc3ccc(F)cc3)n2)cc1)N1CCCC1`, 14.8 µM.
Regarding `O=C(c1ccc(Cl)c([N+](=O)[O-])c1)N1CCN(c2ccccc2)CC1`, the IC50 was 12 µM.
In the case of `COc1ccc2cc3cc(C(=O)N4CC(C)CC(C)C4)oc3nc2c1` (stereo unspecified) it was 3.85 µM; in that of `O=C(Nc1nc(-c2ccc(S(=O)(=O)N3CCCC3)cc2)cs1)c1ccco1`, 4.68 µM.
In the case of `COc1ccc(NC(=O)CC2C(=O)N(C)C(=S)N2Cc2cccs2)cc1` (stereo unspecified), the IC50 was 15.8 µM.
In the case of `O=S(=O)(c1ccc(-c2csc(-c3cccnc3)n2)cc1)N1CCOCC1` it was 2.14 µM; in that of `COc1ccc(CNC(=O)/C=C/c2cc([N+](=O)[O-])ccc2OC(F)F)cc1OC`, 3.26 µM.
`Oc1ccc(Cl)cc1Sc1cc(Cl)ccc1O`: the IC50 was 3.55 µM.
Turning to `COCc1cc(C)nc(SCC[N+](C)(C)CC(=O)Nc2ccccc2)c1C#N`, the IC50 is 12.3 µM.
In the case of `COC(=O)c1cc(C(=O)NC(C)C2CC3CCC2C3)cc([N+](=O)[O-])c1` (stereo unspecified) it was 11.6 µM; in that of `O=C(Nc1nc(-c2ccc(S(=O)(=O)N3CCCC3)cc2)cs1)C1COc2ccccc2O1` (stereo unspecified), 1.31 µM.
With `O=S(=O)(c1ccc(-c2csc(-c3cccnc3)n2)cc1)N1CCCCC1`, the IC50 was 2.68 µM.
In the case of `CCN(CC(=O)NCc1cccs1)S(=O)(=O)c1ccc([N+](=O)[O-])cc1` it was 17.7 µM; in that of `CCC(C)(C)C1CCC(=NNS(=O)(=O)c2ccc(C)c([N+](=O)[O-])c2)CC1` (stereo unspecified), 17.9 µM; in that of `Cc1ccc(NC(=O)NNC(=O)Cn2nc(-c3ccccc3)c(-c3ccccc3)c(C#N)c2=O)cc1`, 4.69 µM.
In the case of `COc1ccc(/C=C(\NC(=O)c2ccc([N+](=O)[O-])cc2)C(=O)NCCN2CCOCC2)cc1` it was 5.25 µM; in that of `O=C(OCc1ccc([N+](=O)[O-])cc1)c1cc([N+](=O)[O-])ccc1N1CCOCC1`, 2.72 µM; in that of `CCCCC(=O)Nc1nc(-c2ccc(S(=O)(=O)N3CCOCC3)cc2)cs1`, 0.199 µM.
As for `CNS(=O)(=O)c1ccc2c(c1)C(=O)c1cc(S(=O)(=O)NC)ccc1CC2`, the figure is 0.861 µM.
Turning to `N/C(=N\OC(=O)CCCc1ccccc1)c1cccc([N+](=O)[O-])c1`, the IC50 is 12 µM.
As for `Cc1cc(C(=O)N/N=C/c2cc([N+](=O)[O-])cc(C)c2O)n[nH]1`, the figure is 11.7 µM; as for `Cc1cccc(N2CCN(C(=O)CNC(=O)c3cccc([N+](=O)[O-])c3)CC2)c1C`, 1.52 µM; as for `CCc1nc2c(OCc3ccc(C(F)(F)F)cc3)cccn2c1N(C=O)Cc1ccc(OC)cc1`, 9.2 µM.
In the case of `O=C(COc1ccc2c(-c3ccccc3)cc(=O)oc2c1)N[C@@H](Cc1c[nH]c2ccc(O)cc12)C(=O)O` it was 6.86 µM.
In the case of `CC(C)(C)OC(=O)NCCCC[C@H](NC(=O)c1nc[nH]c1C(=O)NC1CCN(C(=O)OC(C)(C)C)CC1)C(=O)OC(C)(C)C`, the IC50 is 1.56 µM.
In the case of `CN(C(=O)Nc1ccc(Cl)cc1Cl)[C@H]1c2cc(Br)ccc2OC[C@H]1CO` it was 11 µM; in that of `O=C(COc1ccccc1)Nc1nc(-c2ccc(S(=O)(=O)N3CCOCC3)cc2)cs1`, 0.417 µM.
As for `O=C(CC(c1ccccc1)c1ccccc1)NCC(O)c1ccc([N+](=O)[O-])cc1` (stereo unspecified), the figure is 13.5 µM; as for `O=C(C[C@H]1C[C@H](C(=O)N2CCOCC2)[C@@]2(CCC3CCCC3)c3[nH]c4cc(-c5ccco5)ccc4c3CCN2C1=O)NCCc1ccccn1`, 6.97 µM; as for `CCCc1cc(C(=O)Nc2cccc([N+](=O)[O-])c2)cs1`, 8.69 µM.
For `O=C(Nc1nnc(SCc2ccccc2Cl)s1)c1cccc([N+](=O)[O-])c1`, the IC50 was 11.4 µM.
As for `O=S(=O)(c1ccc(-c2csc(-c3cccnc3)n2)cc1)N1CCCC1`, the figure is 1.51 µM.
